Reference: patent publication US7399638B2, “Prediction method for lipidosis” (Takeda Pharmaceutical Company Limited, priority 2003, dated 2008)
Like-named read-outs stand apart in the source and are kept apart here. Marks after values point to notes of the source that are not given here.

What was measured:
[1] = test system: Crj: CD(SD)IGS rats; test: Urinary PAG/hippuric acid ratio by 1H NMR in rats
[2] = test system: Crj: CD(SD)IGS rats; details: rat, in vivo
Protocol: The following 10 kinds of commercially available drugs were examined as the test compounds for a potential of inducing PLsis by histopathological examination and peripheral blood lymphocyte testing.
The following experiments were performed using the prematurely autopsied animals.
The high-dose dosing suspension was diluted about 3 fold and 10 fold with dispersant/solvent to prepare intermediate- and low-dose dosing suspensions. […] [For LD50, the Summary Basis of Approval (FDA) for each drug was referenced to.]
The animals were examined for mortality, general conditions, body weight, food consumption and the like using PM4800 (Mettler) and EB3200D (Shimadzu Corporation).

[3] = test system: male cynomolgus monkeys; details: cynomolgus monkey, in vivo
Protocol: Amiodarone and perhexiline were purchased from SIGMA Company.
Subsequently, the animals were allocated to four groups (5 animals in total) comprising 2 animals in the control group and 1 male in each treatment group, respectively.
The high-dose dosing suspension was diluted with the dispersant/solvent to prepare a low-dose dosing suspension.
After completion of the administration, livers, kidneys, hearts, spleens, lungs, mesenteric lymph nodes, eyeballs, testes and brains were collected from all animals, and examined for histopathological changes by conventional method of optical microscopy. Additionally, blood samples were collected in the pre-dosing period, on the first day of administration, and on days 2 and 6 of treatment period, blood smear specimens were prepared, and vacuolated lymphocyte ratios were determined.

[4] = rat urine, 25 mg/kg/day by gavage, 3 days, mean n = 3-4
[5] = rat urine, 75 mg/kg/day by gavage, 3 days, mean n = 3-4
[6] = rat urine, 250 mg/kg/day by gavage, 3 days, mean n = 3-4
[7] = rat 24-hour pooled urine, 1 mg/kg/day by gavage, 4 days, negative control drug, mean n = 2-4
[8] = rat 24-hour pooled urine, 3 mg/kg/day by gavage, 4 days, negative control drug, mean n = 2-4
[9] = rat urine, 100 mg/kg/day by gavage, 3 days, mean n = 3-4
[10] = rat urine, 300 mg/kg/day by gavage, 3 days, mean n = 3-4

Compound: CCN(CC)CCCC(C)Nc1ccnc2cc(Cl)ccc12 (centres unmarked) [Chloroquine, chloroquine]
- PAG + hippuric acid/creatinine [1, 4]: 1.34
- PAG/PAG + hippuric acid [1, 4]: 13.25%
- PAG/creatinine (first term of PAG + hippuric acid) [1, 4]: 0.18
- PAG/hippuric acid [1, 4]: 15.42%
- PAG + hippuric acid/creatinine [1, 5]: 1.23
- PAG/creatinine (first term of PAG + hippuric acid) [1, 5]: 0.24
- hippuric acid/creatinine (second term of PAG + hippuric acid) [1, 5]: 1.00
- PAG + hippuric acid/creatinine [1, 6]: 1.29
- PAG/creatinine (first term of PAG + hippuric acid) [1, 6]: 0.52
- hippuric acid/creatinine (second term of PAG + hippuric acid) [1, 6]: 0.76

Compound: O=C(Nc1c(Cl)cncc1Cl)c1ccc(OC(F)F)c(OCC2CC2)c1 [Roflumilast, roflumilast]
- PAG + hippuric acid/creatinine [1, 7]: 1.39
- PAG/PAG + hippuric acid [1, 7]: 10.79%
- PAG/creatinine (first term of PAG + hippuric acid) [1, 7]: 0.15
- PAG/hippuric acid [1, 7]: 12.09%
- hippuric acid/creatinine (second term of PAG + hippuric acid) [1, 7]: 1.24
- PAG + hippuric acid/creatinine [1, 8]: 1.39
- PAG/PAG + hippuric acid [1, 8]: 15.11%
- PAG/creatinine (first term of PAG + hippuric acid) [1, 8]: 0.21
- PAG/hippuric acid [1, 8]: 15.41%
- hippuric acid/creatinine (second term of PAG + hippuric acid) [1, 8]: 1.18
- Histopathological changes (PLsis): Liver ([2]; 1 mg/kg/day): −
- Histopathological changes (PLsis): Lung ([2]; 1 mg/kg/day): −
- Histopathological changes (PLsis): Lymph node ([2]; 1 mg/kg/day): −
- Histopathological changes (PLsis): Others ([2]; 1 mg/kg/day): −
- Histopathological changes (PLsis): Spleen ([2]; 1 mg/kg/day): −
- Histopathological changes (PLsis): Liver ([2]; 3 mg/kg/day): −
- Histopathological changes (PLsis): Lung ([2]; 3 mg/kg/day): −
- Histopathological changes (PLsis): Lymph node ([2]; 3 mg/kg/day): −
- Histopathological changes (PLsis): Others ([2]; 3 mg/kg/day): −
- Histopathological changes (PLsis): Spleen ([2]; 3 mg/kg/day): −

Compound: CCCCc1oc2ccccc2c1C(=O)c1cc(I)c(OCCN(CC)CC)c(I)c1 [Amiodarone]
- induction of PLsis/steatosis ([3]; 60 mg/kg): not observed
- histopathological changes in any target organ ([3]; 300 mg/kg): observed
- Histopathological changes (PLsis): Liver ([2]; 100 mg/kg/day): −
- Histopathological changes (PLsis): Lung ([2]; 100 mg/kg/day): −
- Histopathological changes (PLsis): Lymph node ([2]; 100 mg/kg/day): −
- Histopathological changes (PLsis): Others ([2]; 100 mg/kg/day): −
- Histopathological changes (PLsis): Spleen ([2]; 100 mg/kg/day): −
- Histopathological changes (PLsis): Liver ([2]; 300 mg/kg/day): −
- Histopathological changes (PLsis): Lung ([2]; 300 mg/kg/day): +
- Histopathological changes (PLsis): Lymph node ([2]; 300 mg/kg/day): +
- Histopathological changes (PLsis): Others ([2]; 300 mg/kg/day): −
- Histopathological changes (PLsis): Spleen ([2]; 300 mg/kg/day): −
- Histopathological changes (PLsis): Liver ([2]; 1000 mg/kg/day): −
- Histopathological changes (PLsis): Lung ([2]; 1000 mg/kg/day): +
- Histopathological changes (PLsis): Lymph node ([2]; 1000 mg/kg/day): +
- Histopathological changes (PLsis): Others ([2]; 1000 mg/kg/day): −
- Histopathological changes (PLsis): Spleen ([2]; 1000 mg/kg/day): +

Compound: CN(C)CCCN1c2ccccc2CCc2ccccc21 [Imipramine, imipramine]
- PAG + hippuric acid/creatinine [1, 9]: 1.21
- PAG/creatinine (first term of PAG + hippuric acid) [1, 9]: 0.34
- hippuric acid/creatinine (second term of PAG + hippuric acid) [1, 9]: 0.87
- PAG + hippuric acid/creatinine [1, 10]: 0.71*
- PAG/creatinine (first term of PAG + hippuric acid) [1, 10]: 0.40
- hippuric acid/creatinine (second term of PAG + hippuric acid) [1, 10]: 0.31
